Measured values published in US10695347B2, “Pyrimidine derivative and use thereof” (Hubei Bio-Pharmaceutical Industrial Technological Institute …, priority 2015, dated 2020).

target: ALK L1196M (Homo sapiens (Human), UniProt Q9UM73, L1196M); experiment: Inhibition of ALK L1196M kinase activity (Caliper mobility shift); type: biochemical; details: not given
Experimental: (§1) Inhibition of Compound I Against ALK Kinase Activity
(§2) • I. Preparation of 1× kinase buffer and stop buffer
(§3) 1) 1× Kinase Buffer • 50 mM HEPES. pH 7.5 • 0.0015% Brij-35 • 10 mM MgCl2 • 2 mM DTT • 2) stop buffer • 100 mM HEPES, pH 7.5 • 0.015% Brij-35 • 0.2% Coating Reagent #3 • 50 mM EDTA
(§4) 2. Prepare a Compound Solution to be Tested • Step 2.1 Dilute the compound to 50× of the final desired highest inhibitor concentration in reaction by 100% DMSO. Transfer 100 μl of this compound dilution to a well in a 96-well plate. For example, if desired highest inhibitor concentration is 1 μM, then prepare 50 μM of compound DMSO solution in this step.
(§5) Step 2.2 Further dilute said compound dilution by 3-fold in series, thus obtain 10 concentrations.
(§6) Step 2.3 Add 100 μl of 100% DMSO to two empty wells for no compound control and no enzyme control in the same 96-well plate. Mark the plate as source plate.
(§7) Step 2.4 Prepare an intermediate plate
(§8) Transfer 10 μl of each compound from the source plate to a new 96-well plate as the intermediate plate.
(§9) Add 90 μl of 1× kinase buffer to each well of the intermediate plate. Mix the compounds in the intermediate plate for 10 min on a shaker.
(§10) Transfer 5 μl of each well from the 96-well intermediate plate to a 384-well plate in duplicate. For example, A1 of the 96-well plate is transferred to A1 and A2 of the 384-well plate. A2 of the 96-well plate is transferred to A3 and A4 of the 384-well plate, and so on.
(§11) 4.1 Prepare a 2.5× kinase solution
(§12) Add kinase in 1× kinase base buffer, thus obtain the 2.5× kinase solution.
(§13) 4.2 Prepare a 2.5× peptide solution
(§14) 4.3 In each well of the assay plate obtained in step 3, there was 5 μL of the compound in 10% DMSO.
(§15) 4.4 Transfer the 2.5× enzyme solution to the assay plate.
(§16) 4.5 Incubate at room temperature for 10 min.
(§17) 4.6 Transfer the 2.5× peptide solution to the assay plate.
(§18) 4.7 Kinase reaction and stop
(§19) Incubate at 28° C. for 20 min.
(§20) Add 25 μl of stop buffer to stop reaction.
(§21) Conversion rate of the kinase was read via the Caliper.
(§22) 6.1 Copy conversion data from Caliper program.
(§23) 6.2 Convert conversion values to inhibition values with the following formula: Percent inhibition=(max−conversion)/(max−min)*100
(§24) where “max” stands for DMSO control; and “min” stands for low control.
(§25) 6.3 Fit the data in XLfit excel add-in version 4.3.1 and obtain IC50 values according to the following formula: Y=Bottom+(Top−Bottom)/[…].

ALK L1196M, sequence (Q9UM73 19-1620 L1196M): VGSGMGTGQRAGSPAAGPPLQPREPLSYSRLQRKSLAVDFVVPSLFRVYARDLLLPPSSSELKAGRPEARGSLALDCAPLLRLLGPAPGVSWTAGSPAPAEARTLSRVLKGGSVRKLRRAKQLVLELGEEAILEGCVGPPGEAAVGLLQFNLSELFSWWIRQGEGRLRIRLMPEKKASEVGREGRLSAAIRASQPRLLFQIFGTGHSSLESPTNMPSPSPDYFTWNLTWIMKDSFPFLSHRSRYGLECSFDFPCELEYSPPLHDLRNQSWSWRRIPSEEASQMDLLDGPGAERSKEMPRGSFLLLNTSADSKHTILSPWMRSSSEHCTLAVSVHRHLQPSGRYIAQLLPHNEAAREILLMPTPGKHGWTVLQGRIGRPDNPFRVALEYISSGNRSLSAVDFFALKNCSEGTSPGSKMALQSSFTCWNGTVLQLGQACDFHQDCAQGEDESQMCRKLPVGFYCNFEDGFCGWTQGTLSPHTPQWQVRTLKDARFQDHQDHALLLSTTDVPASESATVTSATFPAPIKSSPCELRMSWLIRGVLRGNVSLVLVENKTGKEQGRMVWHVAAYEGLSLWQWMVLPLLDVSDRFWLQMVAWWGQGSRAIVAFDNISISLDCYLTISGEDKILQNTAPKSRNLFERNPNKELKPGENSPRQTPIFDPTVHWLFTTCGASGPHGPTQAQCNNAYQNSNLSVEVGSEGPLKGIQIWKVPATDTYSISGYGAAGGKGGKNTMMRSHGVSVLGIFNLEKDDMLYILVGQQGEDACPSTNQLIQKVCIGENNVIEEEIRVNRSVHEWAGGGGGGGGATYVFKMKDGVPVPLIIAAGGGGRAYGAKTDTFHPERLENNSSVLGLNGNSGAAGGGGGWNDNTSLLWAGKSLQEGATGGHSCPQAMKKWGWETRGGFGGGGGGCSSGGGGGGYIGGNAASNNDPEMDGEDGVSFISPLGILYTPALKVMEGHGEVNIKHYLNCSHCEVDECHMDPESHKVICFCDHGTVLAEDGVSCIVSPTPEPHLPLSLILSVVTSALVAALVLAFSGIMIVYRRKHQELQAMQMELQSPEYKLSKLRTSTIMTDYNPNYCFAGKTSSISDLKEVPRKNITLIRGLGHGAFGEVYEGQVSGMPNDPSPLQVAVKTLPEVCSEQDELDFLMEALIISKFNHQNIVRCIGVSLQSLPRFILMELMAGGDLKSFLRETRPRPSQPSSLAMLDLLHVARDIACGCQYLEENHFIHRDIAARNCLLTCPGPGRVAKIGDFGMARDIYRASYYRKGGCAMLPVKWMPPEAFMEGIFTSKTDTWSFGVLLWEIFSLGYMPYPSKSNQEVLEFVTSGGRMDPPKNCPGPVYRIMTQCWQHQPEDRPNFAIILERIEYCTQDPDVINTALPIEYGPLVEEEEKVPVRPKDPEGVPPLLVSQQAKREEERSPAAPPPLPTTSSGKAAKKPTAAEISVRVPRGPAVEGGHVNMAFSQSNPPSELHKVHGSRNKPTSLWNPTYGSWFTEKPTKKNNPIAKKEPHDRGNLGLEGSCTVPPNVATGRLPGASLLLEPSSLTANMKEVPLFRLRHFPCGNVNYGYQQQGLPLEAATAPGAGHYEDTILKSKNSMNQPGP

SMILES	IC50 [µM]
COc1cc(N2CCC(N3CCC(N(C)C)CC3)CC2)ccc1Nc1ncc(Cl)c(Nc2ccsc2S(=O)(=O)C(C)C)n1 [Compound I-18]	0.001 to 0.01
COc1cc(N2CCN(C(C)C)CC2)c(C)cc1Nc1ncc(Cl)c(Nc2cccnc2S(=O)(=O)C(C)C)n1 [Compound I-88]	0.001 to 0.01
COc1cc(CN2CCC(N(C)C)CC2)ccc1Nc1ncc(Cl)c(Nc2ccccc2S(=O)(=O)C(C)C)n1 [Compound I-109]	0.001 to 0.01
CC(C)Oc1cc(N2CCC(N(C)C)CC2)ccc1Nc1ncc(Cl)c(Nc2cccnc2S(=O)(=O)C(C)C)n1 [Compound I-91]	0.001 to 0.01
COc1cc(CN2CCC(N(C)C)CC2)ccc1Nc1ncc(Cl)c(Nc2cccnc2S(=O)(=O)C(C)C)n1 [Compound I-107]	0.001 to 0.01

target: ALK (Homo sapiens (Human), UniProt Q9UM73); experiment: Inhibition of ALK kinase activity (Caliper mobility shift); type: biochemical; details: not given
Sequence (Q9UM73 19-1620): as the sequence (Q9UM73 19-1620 L1196M) above, with M1178L counted along it
Experimental: as §1, §2, §3, §4, §5, §6, §7, §8, §9, §10, §11, §12, §13, §14, §15, §16, §17, §18, §19, §20, §21, §22, §23, §24, §25

SMILES	IC50 [µM]
COc1cc(N2CCC(N3CCC(N(C)C)CC3)CC2)ccc1Nc1ncc(Cl)c(Nc2ccsc2S(=O)(=O)C(C)C)n1 [Compound I-18]	0.001 to 0.01
COc1cc(N2CCN(C(C)C)CC2)c(C)cc1Nc1ncc(Cl)c(Nc2cccnc2S(=O)(=O)C(C)C)n1 [Compound I-88]	0.001 to 0.01
COc1cc(CN2CCC(N(C)C)CC2)ccc1Nc1ncc(Cl)c(Nc2ccccc2S(=O)(=O)C(C)C)n1 [Compound I-109]	0.001 to 0.01
CC(C)Oc1cc(N2CCC(N(C)C)CC2)ccc1Nc1ncc(Cl)c(Nc2cccnc2S(=O)(=O)C(C)C)n1 [Compound I-91]	0.001 to 0.01
COc1cc(CN2CCC(N(C)C)CC2)ccc1Nc1ncc(OC(F)F)c(Nc2ccccc2S(=O)(=O)C(C)C)n1 [Compound I-103]	0.001 to 0.01
COc1cc(C2=CCNCC2)c(C)cc1Nc1ncc(Cl)c(Nc2cccnc2S(=O)(=O)C(C)C)n1 [Compound I-89]	0.001 to 0.01

tested on: Ba/F3 EML4-ALK cells; experiment: Suppression of Ba/F3 EML4-ALK cell proliferation (CellTiter-Glo); type: cell-based; details: Ba/F3 EML4-ALK, 72 h; 3 days incubation
Excerpt: Cell media: RPMI-1640 medium, fetal calf serum (FCS), antibiotics (Penicillin-Streptomycin), IL-3, puromycin
Cell line: Ba/F3 EML4-ALK
Assay reagent: Cell Viability Assay Kit Celliter-Glo
(§26) Others: a 96-well plate, a 384-well plate, DMSO
(§27) As the amount of ATP can indicate the number of living cells directly, the living cells in medium are able to be quantified by determining the ATP level. In our experiment, we use a cell viability assay kit to quantify the living cells, which utilizes UltraGlow luciferase to generate a stable glow signal in the presence of ATP which is produced by metabolism of living cells, such as respiration. Specifically, a reagent CellTiter-Glo™ was added into cell culture media, and then the luminescent intensity was determined to measure proliferation of cells, as the luminescent intensity is in direct proportion to the ATP level which correlates positively to the number of living cells. The test plate was assayed by the Envision (PE).
(§28) Step 3.1 Culturing test cells
Ba/F3 EML4-ALK cells were planted into a 384-well plate, with almost 300 cells per well. The plate was placed in a carbon dioxide incubator overnight.
(§29) Step 3.2 Preparation of the compounds to be tested
10 concentrations of the working solutions were obtained in duplicate by dilution in 3-fold series with BRAVO.
Step 3.3 Mixing the compound to be tested with the test cells
The compounds to be tested at individual working concentrations were transferred into corresponding wells in the 384-well plate in the step 3.1, with 5 μM as the initial working concentration, and then the 384-well plate was incubated in the carbon dioxide incubator for 3 days.
To each well of the 384-well plate was added the reagent Promega CellTiter-Glo, and incubated at room temperature for 10 minutes to stabilize the luminescence signal. The results were read by the PerkinElmer Envision Multi-mode Plate Reader.

SMILES	IC50 [µM]
COc1cc(N2CCC(N3CCC(N(C)C)CC3)CC2)ccc1Nc1ncc(Cl)c(Nc2ccsc2S(=O)(=O)C(C)C)n1 [Compound I-18]	< 0.02
COc1cc(N2CCN(C(C)C)CC2)c(C)cc1Nc1ncc(Cl)c(Nc2cccnc2S(=O)(=O)C(C)C)n1 [Compound I-88]	0.02 to 0.1
COc1cc(CN2CCC(N(C)C)CC2)ccc1Nc1ncc(Cl)c(Nc2ccccc2S(=O)(=O)C(C)C)n1 [Compound I-109]	< 0.02
COc1cc(N2CCOCC2)ccc1Nc1ncc(Cl)c(Nc2ccsc2S(=O)(=O)C(C)C)n1 [Compound I-1]	< 0.02
CC(C)Oc1cc(N2CCC(N(C)C)CC2)ccc1Nc1ncc(Cl)c(Nc2cccnc2S(=O)(=O)C(C)C)n1 [Compound I-91]	< 0.02
COc1cc(N2CCC(N3CCOCC3)CC2)ccc1Nc1ncc(Cl)c(Nc2ccsc2S(=O)(=O)C(C)C)n1 [Compound I-8]	< 0.02
COc1cc(N2CCC(O)CC2)ccc1Nc1ncc(Cl)c(Nc2ccsc2S(=O)(=O)C(C)C)n1 [Compound I-16]	< 0.02
COc1cc(CN2CCC(N(C)C)CC2)ccc1Nc1ncc(OC(F)F)c(Nc2ccccc2S(=O)(=O)C(C)C)n1 [Compound I-103]	< 0.02
COc1cc(N2CCC(N(C)C)CC2)ccc1Nc1ncc(Cl)c(Nc2ccsc2S(=O)(=O)C(C)C)n1 [Compound I-3]	< 0.02
COc1cc(N2CCN(C)CC2)ccc1Nc1ncc(Cl)c(Nc2ccsc2S(=O)(=O)C(C)C)n1 [Compound I-2]	< 0.02
COc1cc(N2CCC(N3CCC(N(C)C)CC3)CC2)ccc1Nc1ncc(Cl)c(Nc2ccccc2S(=O)(=O)C(C)C)n1 [Compound I-15]	< 0.02
CC(C)S(=O)(=O)c1ccccc1Nc1nc(Nc2ccc(N3CCC(N(C)C)CC3)cc2OC(F)F)ncc1Cl [Compound I-95]	0.02 to 0.1
COc1cc(N2CCN(C)CC2)ccc1Nc1ncc(Cl)c(Nc2ccccc2S(=O)(=O)C(C)C)n1 [Compound I-13]	< 0.02
COc1cc(N2CCC(N(C)C)CC2)ccc1Nc1ncc(Cl)c(Nc2ccccc2S(=O)(=O)C(C)C)n1 [Compound I-14]	< 0.02
COc1cc(CN2CCC(N(C)C)CC2)ccc1Nc1ncc(Cl)c(Nc2cccnc2S(=O)(=O)C(C)C)n1 [Compound I-107]	0.02 to 0.1
CC(C)S(=O)(=O)c1ccccc1Nc1nc(Nc2ccc(N3CCC(N(C)C)CC3)cc2OC(F)F)ncc1OC(F)F [Compound I-114]	< 0.02
COc1cc(C2=CCNCC2)c(C)cc1Nc1ncc(Cl)c(Nc2cccnc2S(=O)(=O)C(C)C)n1 [Compound I-89]	< 0.02

tested on: Karpas299 cells; experiment: Suppression of Karpas299 cell proliferation (CellTiter-Glo); type: cell-based; details: Homo sapiens, KARPAS-299, 72 h; 3 days incubation; read-out: Inhibition activity on Karpas299 cells IC50
Experimental: as §27, with “culture” for “medium”, “living-cell testing” for “cell viability assay”, “tested with” for “assayed by”
Cell media: RPMI-1640 medium, fetal calf serum (FCS), antibiotics (Penicillin-Streptomycin)
Assay reagent: Cell Viability Assay Kit CellTiter-Glo
as §26, §28
Karpas 299 cells were plated into a black 384-well plate, with 2500 cells in 45 μl cell suspension per well. The plate was placed in a carbon dioxide incubator overnight.
as §29
Each compound to be tested was dissolved in DMSO at 10 mM as the stock solution, which was left in a nitrogen-gas tank for storage.
After dilution of 10 μL stock solution (10 mM) into 2.5 mM as a starting working solution, 10 concentrations of the working solutions from 5 μM to 0.25 nM were obtained in duplicate by further dilution in 3-fold series with ECHO.
Step 3.3 Mixing the compound with the test cells
To each well of a new 96-well plate were added 49 μl medium and 1 μl of the compounds to be tested at individual working concentrations (10 concentrations in total). After oscillation,
5 μl of mixture in each well of the 96-well plate was transferred into corresponding wells in the 384-well plate in the step 3.1. The 384-well plate was incubated in the carbon dioxide incubator for 3 days.
To each well of the 384-well plate was added […] reagent Promega CellTiter-Glo. and incubated at room temperature for 10 minutes to stabilize the luminescence signal. The results were read with the PerkinElmer Envision Multi-mode Plate Reader.

SMILES	IC50 [µM]
COc1cc(N2CCC(N3CCC(N(C)C)CC3)CC2)ccc1Nc1ncc(Cl)c(Nc2ccsc2S(=O)(=O)C(C)C)n1 [Compound I-18]	< 0.05
COc1cc(N2CCN(C(C)C)CC2)c(C)cc1Nc1ncc(Cl)c(Nc2cccnc2S(=O)(=O)C(C)C)n1 [Compound I-88]	0.05 to 0.1
COc1cc(CN2CCC(N(C)C)CC2)ccc1Nc1ncc(Cl)c(Nc2ccccc2S(=O)(=O)C(C)C)n1 [Compound I-109]	0.05 to 0.1
COc1cc(N2CCOCC2)ccc1Nc1ncc(Cl)c(Nc2ccsc2S(=O)(=O)C(C)C)n1 [Compound I-1]	< 0.05
CC(C)Oc1cc(N2CCC(N(C)C)CC2)ccc1Nc1ncc(Cl)c(Nc2cccnc2S(=O)(=O)C(C)C)n1 [Compound I-91]	0.05 to 0.1
COc1cc(N2CCC(N3CCOCC3)CC2)ccc1Nc1ncc(Cl)c(Nc2ccsc2S(=O)(=O)C(C)C)n1 [Compound I-8]	< 0.05
COc1cc(N2CCC(O)CC2)ccc1Nc1ncc(Cl)c(Nc2ccsc2S(=O)(=O)C(C)C)n1 [Compound I-16]	< 0.05
COc1cc(CN2CCC(N(C)C)CC2)ccc1Nc1ncc(OC(F)F)c(Nc2ccccc2S(=O)(=O)C(C)C)n1 [Compound I-103]	0.05 to 0.1
COc1cc(N2CCC(N(C)C)CC2)ccc1Nc1ncc(Cl)c(Nc2ccsc2S(=O)(=O)C(C)C)n1 [Compound I-3]	< 0.05
COc1cc(N2CCN(C)CC2)ccc1Nc1ncc(Cl)c(Nc2ccsc2S(=O)(=O)C(C)C)n1 [Compound I-2]	< 0.05
COc1cc(N2CCC(N3CCC(N(C)C)CC3)CC2)ccc1Nc1ncc(Cl)c(Nc2ccccc2S(=O)(=O)C(C)C)n1 [Compound I-15]	0.05 to 0.1
CC(C)S(=O)(=O)c1ccccc1Nc1nc(Nc2ccc(N3CCC(N(C)C)CC3)cc2OC(F)F)ncc1Cl [Compound I-95]	< 0.05
COc1cc(N2CCN(C)CC2)ccc1Nc1ncc(Cl)c(Nc2ccccc2S(=O)(=O)C(C)C)n1 [Compound I-13]	< 0.05
COc1cc(N2CCC(N(C)C)CC2)ccc1Nc1ncc(Cl)c(Nc2ccccc2S(=O)(=O)C(C)C)n1 [Compound I-14]	< 0.05
COc1cc(CN2CCC(N(C)C)CC2)ccc1Nc1ncc(Cl)c(Nc2cccnc2S(=O)(=O)C(C)C)n1 [Compound I-107]	0.05 to 0.1
CC(C)S(=O)(=O)c1ccccc1Nc1nc(Nc2ccc(N3CCC(N(C)C)CC3)cc2OC(F)F)ncc1OC(F)F [Compound I-114]	< 0.05
COc1cc(C2=CCNCC2)c(C)cc1Nc1ncc(Cl)c(Nc2cccnc2S(=O)(=O)C(C)C)n1 [Compound I-89]	0.05 to 0.1
